Measured values taken from patent publication US5362744A, “Tetrazole-substituted urea acat inhibitors” (Warner-Lambert Company, priority 1993, dated 1994).

Legend:
total cholesterol = assay: in vivo screen designated APCC (total cholesterol in rats on PCC diet); design: species or system male Sprague-Dawley rats; details: Rattus norvegicus, PCC diet overnight, read-out: APCC (%ΔTC): percent change in total cholesterol between control and drug-treated animals
Source text: In one in vivo screen designated APCC, male Sprague-Dawley rats (200 to 225 g) were randomly divided into treatment groups and dosed at 4 PM with either vehicle (CMC/Tween) or suspensions of compounds in vehicle. The normal chow diet was then replaced with the PCC diet (5.5% peanut oil, 1.5% cholesterol, and 0.5% cholic acid). The rats consumed this diet ad libitum during the night and were sacrificed at 8 AM to obtain blood samples for cholesterol analysis using standard procedures. Statistical differences between mean cholesterol values for the same vehicle were determined using analysis of variance followed by Fisher's least significant test. The results of this trial for representative compounds of the present invention appear in Table II wherein percent change means the difference in total cholesterol between control, and the drug-treated animals.

adrenal gland = assay: in vivo toxicity screen in guinea pigs (adrenal histopathology); design: species or system male guinea pigs of the Hartley strain; details: 100 mg/kg daily by gavage, 2 weeks; for adrenal toxicity class: oleic acid vehicle
Experimental: The nontoxic nature of representative compounds of the present invention was measured and compared against previously disclosed tetrazole urea ACAT inhibitors using an in vivo toxicity screen developed by Dominick, et al., 1993. Male guinea pigs of the Hartley strain (450-500 g) were obtained from Charles River and randomly divided into treatment groups. They were fed standard guinea pig chow ad libitum and dosed daily (AM) by gavage (100 mg/kg). The test compounds were dissolved or suspended in an oleic acid vehicle to facilitate absorption. After 2 weeks the animals were sacrificed by CO2 asphyxiation in the nonfasted state 16 hours after the last dose. Adrenal glands were weighed, fixed in 10% formalin, processed by routine paraffin techniques, sectioned, and then stained with hematoxylin and eosin for light microscopy. Toxicity was defined by the incidence, severity, and complexity of adrenal histopathologic alterations in the zona fasciculata (e.g., adrenal cortical atrophy, increased coarse vacuolation, single cell necrosis, inflammatory cell infiltrates, mineralization/ectopic bone formation, and increased cytoplasmic eosinophilia).

Compound | change in vivo at 30 mg/kg (total cholesterol) [%] | further results
CC(C)c1cccc(C(C)C)c1NC(=O)N(c1ccccc1)c1nnn(CCCCCCCCOC2CCCCO2)n1 (racemic) [Example 10, (±)N'-[2,6-bis(1-methylethyl)phenyl]-N-phenyl-N-[2-[8-[(tetrahydro-2H-pyran-2-yl)oxy]octyl]-2H-tetrazol-5-yl]-urea] | -42 | –
COc1cc(OC)c(NC(=O)N(c2ccccc2)c2nnn(CCCCCCCCOC3CCCCO3)n2)c(OC)c1 (racemic) [Example 11, (±)N-phenyl-N-[2-[8-[(tetrahydro-2H-pyran-2-yl)oxy]octyl]-2H-tetrazol-5-yl]-N'-(2,4,6-trimethoxyphenyl)-urea] | -50 | –
O=C(Nc1ccc(F)cc1F)N(c1ccccc1)c1nnn(CCCCCCCCOC2CCCCO2)n1 (racemic) [Example 12, (±)N'-(2,4-difluorophenyl)-N-phenyl-N-[2-[8-[(tetrahydro-2H-pyran-2-yl)oxy]octyl]-2H-tetrazol-5-yl]-urea] | -37 | –
CCCCCCCCCCCCn1nnc(N(C(=O)Nc2c(C(C)C)cccc2C(C)C)c2ccccc2)n1 [Example 1, N'-[2,6-Bis(1-methylethyl)phenyl]-N-(2-dodecyl-2H-tetrazol-5-yl)-N-phenyl-urea] | -52 | –
CCCCCCCCCCCCn1nnc(N(C(=O)Nc2c(OC)cc(OC)cc2OC)c2ccccc2)n1 [Example 2, N-(2-dodecyl-2H-tetrazol-5-yl)-N-phenyl-N'-(2,4,6-trimethoxyphenyl)-urea] | -74 | –
CCCCCCCCCCCCn1nnc(N(C(=O)Nc2ccc(F)cc2F)c2ccccc2)n1 [Example 3, N'-(2,4-Difluorophenyl)-N-(2-dodecyl-2H-tetrazol-5-yl)-N-phenyl-urea] | -63 | –
CCCCCCCCCCCCn1nnc(N(C(=O)Nc2c(C(C)C)cccc2C(C)C)C2CCCCC2)n1 [Example 4, N'-[2,6-bis(1-methylethyl)phenyl]-N-cyclohexyl-N-(2-dodecyl-2H-tetrazol-5-yl)-urea] | -10 | –
CCCCCCCCCCCCn1nnc(N(C(=O)Nc2c(OC)cc(OC)cc2OC)C2CCCCC2)n1 [Example 5, N-cyclohexyl-N-(2-dodecyl-2H-tetrazol-5-yl)-N'-(2,4,6-trimethoxyphenyl)-urea] | -67 | drug related adrenal changes (adrenal gland): no drug related adrenal changes; adrenal toxicity class (adrenal gland): nontoxic to the adrenal gland
CCCCCCCCCCCCn1nnc(N(C(=O)Nc2ccc(F)cc2F)C2CCCCC2)n1 [Example 6, N-Cyclohexyl-N'-(2,4-difluorophenyl)-N-(2-dodecyl-2H-tetrazol-5-yl)-urea] | -33 | –
CCCCCCCCCCCCCCn1nnc(N(C(=O)Nc2c(OC)cc(OC)cc2OC)c2ccccc2)n1 [Example 7, N-phenyl-N-(2-tetradecyl-2H-tetrazol-5-yl)-N'-(2,4,6-trimethoxyphenyl)-urea] | -22 | –
CCCCCn1nnc(N(C(=O)Nc2c(OC)cc(OC)cc2OC)c2ccccc2)n1 [Example 8, N-(2-pentyl-2H-tetrazol-5-yl)-N-phenyl-N'-(2,4,6-trimethoxyphenyl)-urea] | -43 | –
CCCCCCCCCCCCn1nnc(CN(Cc2ccccc2)C(=O)Nc2c(OC)cc(OC)cc2OC)n1 [Example 9, N-(2-Dodecyl-2H-tetrazol-5-ylmethyl)-N-(phenylmethyl)-N'-(2,4,6-trimethoxyphenyl)-urea] | -49 | –
CC(C)c1cccc(C(C)C)c1NC(=O)N(c1ccccc1)c1nnn(CCCCCCCCO)n1 [Example 13, N'-[2,6-Bis(1-methylethyl)phenyl]-N-[2-(8-hydroxyoctyl)-2H-tetrazol-5-yl]-N-phenyl-urea] | -17 | –
COc1cc(OC)c(NC(=O)N(c2ccccc2)c2nnn(CCCCCCCCO)n2)c(OC)c1 [Example 14, N-[2-(8-hydroxyoctyl)-2H-tetrazol-5-yl]-N-phenyl-N'-(2,4,6-trimethoxyphenyl)-urea] | -15 | –
CC(C)c1cccc(C(C)C)c1NC(=O)N(c1ccccc1)c1nnn(CCCCCCCC=O)n1 [Example 15, N'-[2,6-bis(1-methylethyl)phenyl]-N-[2-(8-oxooctyl)-2H-tetrazol-5-yl]-N-phenyl-urea] | -29 | –
COc1cc(OC)c(NC(=O)N(c2ccccc2)c2nnn(CCCCCCCC=O)n2)c(OC)c1 [Example 16, N-[2-(8-oxooctyl)-2H-tetrazol-5-yl]-N-phenyl-N'-(2,4,6-trimethoxyphenyl)-urea] | -8 | –
CCN(CC)CCCCCCCCn1nnc(N(C(=O)Nc2c(C(C)C)cccc2C(C)C)c2ccccc2)n1 [Example 17, N'-[2,6-bis(1-methylethyl)phenyl]-N-[2-[8-(diethylamino)octyl]-2H-tetrazol-5-yl]-N-phenyl-urea] | -30 | –
CCCCCCCCCCCCn1nnc(NC(=O)Nc2c(C(C)C)cccc2C(C)C)n1 [N-[2,6-bis(1-methylethyl)-phenyl]-N'-(2-dodecyl-2H-tetrazol-5-yl)-urea] | – | cytotoxic zonal atrophy of the zona fasciculata (treated animals affected) (adrenal gland): 3/6; increased coarse vacuoles (animals affected) (adrenal gland): 5/6; inflammatory cell infiltrates (animals affected) (adrenal gland): 2/6; necrosis of the adrenal cortex (animals affected) (adrenal gland): 2/6; adrenal toxicity class (adrenal gland): highly toxic to the adrenal gland
CCCCCCCCCCCCCn1nnc(NC(=O)Nc2c(C(C)C)cccc2C(C)C)n1 [N-[2,6-bis(1-methylethyl)-phenyl]-N'-(2-tridecyl-2H-tetrazol-5-yl)-urea] | – | cytotoxic zonal atrophy of the zona fasciculata (treated animals affected) (adrenal gland): 4/6; increased coarse vacuoles (animals affected) (adrenal gland): 5/6; inflammatory cell infiltrates (animals affected) (adrenal gland): 2/6; necrosis of the adrenal cortex (animals affected) (adrenal gland): 3/6; adrenal toxicity class (adrenal gland): highly toxic to the adrenal gland
